Structures are written as SMILES.

This passage reports melting point results from patent US6384225B1, “Intermediates in the preparation of substituted chroman derivatives” (AstraZeneca AB, priority 1997, dated 2002).

On to `COc1ccc(N2CCN(C)CC2)c2c1OCC(C(=O)Nc1ccc(N3CCOCC3)cc1)C2` (stereo not drawn) [Example 20, N-(4-Morpholinophenyl)-8-methoxy-5-(4-methylpiperazin-1-yl)-3,4-dihydro-2H-1-benzopyran-3-carboxamide], for which the melting point lay in the range of 202 to 204 °C.

Turning to `Cc1ccc(C(=O)N[C@@H]2COc3c(C)ccc(N4CCN(C)CC4)c3C2)cc1` [Example 11, (S)-N-[8-Methyl-5-(4-methylpiperazin-1-yl)-3,4-dihydro-2H-1-benzopyran-3-yl]-4-methylbenzamide], the melting point lay in the range of 191 to 192 °C.

For the compound `CN1CCN(c2ccc(C(N)=O)c3c2C[C@H](NC(=O)c2ccc(C(=O)c4ccccc4)cc2)CO3)CC1` [Example 14, (S)-N-[8-Carbamoyl-5-(4-methylpiperazin-1-yl)-3,4-dihydro-2H-1-benzopyran-3-yl]-4-benzoylbenzamide], the melting point is 259 °C (dec.).
